l = locked nucleic acid (LNA); d = 2'-deoxy (DNA)

Data set [1] relates to MED211 cells. The data set can be described thus: Cell proliferation, living cells counted by trypan blue staining. The data set is classed as cell-based, human. The procedure:
(§1) Cell culture. Cell lines were authenticated using single tandem repeat profiling. D425 Med cells were cultured in DMEM/F12 with 10% serum and 1% glutamate/penicillin/streptomycin. MED211 cells were cultured in medium composed of 30% Ham's F12/70% DMEM, 1% antibiotic antimycotic, […] B27 supplement, 5 μg/mL heparin, 20 ng/mL EGF, and 20 ng/mL FGF2. DAOY cells were cultured in DMEM with 10% serum and 1% glutamate/penicillin/streptomycin. All cells were grown in a humidified incubator at 37° C., 5% CO2. For blocking of BET bromodomain protein in D425 Med and MED211 cells, JQ1 (SML1524-5MG, Sigma Aldrich, St. Louis, MO) was added, and the medium was changed every other day.
(§2) Cell proliferation, apoptosis, and 3D colony formation assays. Cells were plated in 96-well plates at 5×10^3 cells per well in triplicate. After 72 hours of ASO or siRNA transfection, living cells were counted by trypan blue staining. Apoptotic cells were analyzed using a GloMax luminometer (Promega, Fitchburg, WI) with conditions optimized for the Caspase-Glo 3/7 Assay. For the 3D colony formation assay, cells were seeded in 24-well plates at a density of 1×10^2 cells/well and were stained with crystal violet solution approximately 14 days later. Colony number was determined using the EVE cell counter (Nano Entek, Pleasanton, CA), and staining intensity was analyzed using ImageJ software.

The subject of data set [2] is D425 Med cells. The data set is described as above. The data set is classed as cell-based, human. The protocol:
as §1, §2

Data set [3] has as its system lnc-HLX-2-7. The data set can be described thus: qRT-PCR of lnc-HLX-2-7 expression in MB cells. The data set is classed as cell-based, human. The procedure: as §1
(§3) Quantitative real-time PCR (qRT-PCR). Total RNA was purified using the Direct-zol RNA Miniprep kit (Zymo Research, Irvine, CA). To obtain RNA from xenografts, tumor tissues were pulverized and then used for purification.
(§4) ASO-lnc-HLX2-7. Antisense oligonucleotides (ASOs) were designed using the Integrated DNA Technologies (IDT) Antisense Design Tool (IDT, Coralville, IA). ASO knockdowns were performed with 50 nM (final concentration) locked nucleic acid (LNA) GapmeRs transfected with Lipofectamine 3000 (Thermo Fisher Scientific, Waltham, MA). All ASOs were modified with phosphorothioate (PS) linkages. The following ASOs were used: ASO targeting lnc-HLX-2-7 (ASO-lnc-HLX-2-7): +T*+G*+A*G*A*G*A*T*T*A*A*T*C*T*A*G*A*T*+T*+G*+C (SEQ ID NO:240) and control ASO targeting luciferase (ASO-Luc): +T*+C*+G*A*A*G*T*A*C*T*C*A*G*C*G*T*A*A*+G*+T*+T (SEQ ID NO:241). The PS linkages are indicated with * and LNA-modified oligonucleotides are indicated with +.
(§5) siRNA-mediated knockdown of HLX, MYC, and MY CN. siRNAs targeting HLX (catalog no. 4427037, ID: s6639) and MYC (catalog no. 4427037, ID: s9129) were purchased from Thermo Fisher Scientific. siRNAs were transfected at 20 nM for 48 h using Lipofectamine RNAiMAX (Thermo Fisher Scientific). The efficiency was determined by qRT-PCR.
On the technique in general: In qPCR the cycle at which signal appears reflects the starting amount.

In data set [4] the test system is various types of cancer including MB. The note with it: by inhibiting BRD4-mediated regulation of MYC; previous studies; cited from earlier work.
In the next data set the test system is MYC. Put plainly: qRT-PCR of MYC expression in MB cells. The note with it: JQ1 100 or 300 nM, relative to DMSO-treated cells. It is filed as cell-based, human. The protocol:
as §1, §3, §5

Data set [5] has as its system lnc-HLX-2-7. Put plainly: qPCR of lnc-HLX-2-7 and MYC expression in JQ1-treated mouse xenografts. It is filed as in vivo, NOD-SCID mice. To be noted: JQ1 50 mg/kg intraperitoneal on alternating days for 14 days vs DMSO.
Excerpt: as §3
Medulloblastoma xenografts (intracranial). All mouse studies were approved and performed in accordance with the policies and regulations of the Animal Care and Use Committee of Johns Hopkins University. Intracranial MB xenografts were established by injecting D425 Med cells, MED211 cells, D425 Med cells with lnc-HLX-2-7 deleted, and MED211 cells with lnc-HLX-2-7 deleted into the cerebellums of NOD-SCID mice (Jackson Laboratory, Bar Harbor, ME). Cerebellar coordinates were −2 mm from lambda, +1 mm laterally, and 1.5 mm deep. Seven days after injection, mice were administered JQ1 (50 mg/kg) or vehicle alone (DMSO) on alternating days via intraperitoneal injection for 14 days. Tumor growth was evaluated by weekly bioluminescence imaging using an in vivo spectral imaging system (IVIS Lumina II, Xenogen, Alameda, CA).

The test system of a further data set is HLX. The data set can be described thus: qRT-PCR of HLX expression in MB cells. The note with it: ASO 50 nM. The data set is classed as cell-based, human. The procedure:
as §3, §4, §5

Data set [6] has as its system MED211 cells. The data set can be described thus: Apoptosis, Caspase-Glo 3/7 Assay. The data set is classed as cell-based, human. The note with it: ASO 50 nM, p<0.01. The procedure: as §2
Data set [7] relates to D425 Med cells. Put plainly: Apoptosis, Caspase-Glo 3/7 Assay. The note with it: ASO 50 nM, p<0.01. The data set is classed as cell-based, human. The protocol:
as §2

As for `Cc1sc2c(c1C)C(c1ccc(Cl)cc1)=N[C@@H](CC(=O)OC(C)(C)C)c1nnc(C)n1-2` [JQ1], the “cell growth (viable cell numbers)” value with MED211 cells [1] (MED211 cells treated with JQ1, relative to DMSO (FIG. 11B), suppressed by lnc-HLX-2-7 overexpression) is “cell growth inhibition”; with D425 Med cells [2] (D425 Med cells treated with JQ1, relative to DMSO (FIG. 11B), suppressed by lnc-HLX-2-7 overexpression), “cell growth inhibition”. The lnc-HLX-2-7 expression result is on record as “downregulated” in the data set on lnc-HLX-2-7 [3] (D425 Med cells, JQ1 100 or 300 nM, relative to DMSO-treated cells) and “downregulated” in the data set on lnc-HLX-2-7 [3] (MED211 cells, JQ1 100 or 300 nM, relative to DMSO-treated cells). Moreover, the “lnc-HLX2-7 expression (summary statement)” value with lnc-HLX-2-7 [3] (no cell line named at the place) is listed as “reduced”. Also, in [4], the cancer cell proliferation entry is “effectively suppresses”. Further, the MYC expression result in the data set with MYC (D425 Med cells) and in the data set on MYC (MED211 cells) was “downregulated” each time. The “lnc-HLX2-7 expression in vivo” value with lnc-HLX-2-7 [5] is reported as “downregulation”.

In the case of “ASO-lnc-HLX-2-7: LNA GapmeR antisense oligonucleotide with phosphorothioate linkages targeting lnc-HLX-2-7: +T*+G*+A*G*A*G*A*T*T*A*A*T*C*T*A*G*A*T*+T*+G*+C (antisense TGAGAGATTAATCTAGATTGC; sugars from the 5' end l3 d15 l3, all phosphorothioate, methylation of C not given here)”, the HLX expression result in the data set on HLX (D425 Med cells) and in the data set on HLX (MED211 cells) was “significantly reduced” in each case. Further, the “MB cell growth (viable cell numbers)” value is reported as “significantly suppressed” in the data set on MED211 cells [1] (MED211 cells, ASO 50 nM, 72 hours after transfection, p<0.01) and “significantly suppressed” with D425 Med cells [2] (D425 Med cells, ASO 50 nM, 72 hours after transfection, p<0.01). Besides, the lnc-HLX-2-7 expression result in the data set with lnc-HLX-2-7 [3] (D425 Med cells, ASO 50 nM, compared to control ASO-luc, p<0.01) is “significantly decreased”; in the data set with lnc-HLX-2-7 [3] (MED211 cells, ASO 50 nM, compared to control ASO-luc, p<0.01), “significantly decreased”. Moreover, the “apoptosis (apoptotic cell numbers)” value in the data set with MED211 cells [6] and in the data set with D425 Med cells [7] was “induced apoptosis” in each case.

These data come from patent US12624398B2, “Use of long non-coding RNAs in medulloblastoma” (THE JOHNS HOPKINS UNIVERSITY, priority 2019, dated 2026).
